Values of other authors as cited in publication PMC12177174 (iScience, 2025).

Test system: tumor cell proliferation
Details: cited from earlier work

Question: With `Cc1c(-c2ccnc(C(F)(F)F)c2)ncn1CC(=O)Nc1ccc(-c2cnccn2)cn1` [RXC004] as the compound, how does the tumor cell proliferation read?
Answer: inhibits tumor cell proliferation
